Assay in all cases: growth of human tumour cells (NCI), 48 h
In assay [1] the test system is SK-MEL-28.
For assay [2], the system named is HCT-15.
Assay [3] concerns PC-3.
Assay [4] concerns HCC 2998.
Assay [5] deals with DU-145.
Assay [6] has as its system RPMI-8226.
For assay [7], the system named is KM12.
The subject of assay [8] is MDA-MB-435.
In assay [9] the test system is UACC-257.
Assay [10] deals with HT-29.
For assay [11], the system named is OVCAR-3.
In assay [12] the test system is UO-31.
Assay [13] has as its system HCT-116.
The test system of assay [14] is HOP-92.
For assay [15], the system named is IGROV-1.
For assay [16], the system named is HOP-62.
Assay [17] has as its system COLO 205.
The test system of assay [18] is OVCAR-8.
The subject of assay [19] is RXF 393.
The subject of assay [20] is Malme-3M.

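These data come from cells grown in 96-well plates and exposed to compound for 48 hours at five concentrations. GI50 marks 50% less growth.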 Active and inactive are the calls of the source. No stated cut-off is given here; in the data, active = GI50 up to about 1.1 µM and inactive = higher.

Turning to `C[C@]12CC[C@H]3[C@@H](CC=C4C[C@@H](N5CCCC5)CC[C@@]43C)[C@@H]1C[C@H](N1CCCCC1)[C@@H]2O`, the GI50 is 45.3 µM (inactive) in assay [1]; 33.8 µM in [2]; > 100 µM (inactive) in [3]; 31.6 µM (inactive) in [4]; > 100 µM (inactive) in assay [5]; 26.8 µM (inactive) in assay [6]. Also, the GI50 in [7] was > 100 µM (inactive); in [8], 45.4 µM (inactive); in [9], 23.3 µM (inactive); in assay [10], 14.3 µM (inactive); in [11], > 100 µM (inactive); in assay [12] it was > 100 µM (inactive). The GI50 was 91.4 µM (inactive) in [13]; 83.8 µM (inactive) in assay [14]; > 100 µM (inactive) in assay [15]; > 100 µM (inactive) in [16]; 93.3 µM (inactive) in assay [17]; > 100 µM (inactive) in assay [18]. Moreover, the results for the GI50 in [19] and in assay [20] were > 100 µM (inactive) and 42.5 µM (inactive), respectively.

As to `NC(CCC(=O)NC(CSCC1C(=O)Nc2ccccc21)C(=O)NCC(=O)O)C(=O)O` (stereo not given), the GI50 was 6.58 µM (inactive) in [1]; 4.72 µM in assay [2]; 21.6 µM (inactive) in assay [3]; 5.75 µM (inactive) in assay [4]; 6.17 µM (inactive) in [5]; 2.02 µM (inactive) in assay [6]. Further, the GI50 was 9.82 µM (inactive) in assay [7]; 6.31 µM (inactive) in assay [8]; 8.11 µM (inactive) in [9]; 6.78 µM (inactive) in assay [10]; 5.62 µM (inactive) in assay [11]; 0.466 µM (active) in [12]. Also, the GI50 was 4.89 µM (inactive) in assay [13]; 4.16 µM (inactive) in [14]; 5.52 µM (inactive) in [15]; 11.9 µM (inactive) in assay [16]; 5.12 µM (inactive) in assay [17]; 6.15 µM (inactive) in [18]. The values for the GI50 in assay [19] and in assay [20] were 0.855 µM (active) and 6.3 µM (inactive), respectively.

In the case of `O=C(O)[C@@H]1C[C@@H](O)CN1`, the GI50 in assay [1] was > 100 µM (inactive); in [2] it was greater than 100 µM; in [3], > 100 µM (inactive); in assay [4], > 100 µM (inactive); in [5], > 100 µM (inactive); in assay [6] it was > 100 µM (inactive). Also, the GI50 in [7], in assay [8], in [9], in assay [10], in [11] and in [12] was > 100 µM (inactive) each time. In addition, the GI50 in assay [13], in [14], in assay [15], in assay [16], in [17] and in [18] was > 100 µM (inactive) throughout. Further, the GI50 in assay [19] and in [20] was > 100 µM (inactive) throughout.

The values above are taken from ChEMBL document CHEMBL1201862, “PubChem BioAssay data set” (2004).
